Results published in patent publication US12187759B2, “TLR7 agonists” (Primmune Therapeutics, Inc., priority 2019, dated 2025).

How the values were obtained:
[1] = target: T1, human TLR7 (Homo sapiens, UniProt Q9NYK1); assay: TLR7 reporter cell assay (HEK293 cells stably expressing human TLR7 with NF-κB-driven SEAP reporter); type: cell-based; settings: 15-24 hours; for Emax at 500 µM: HEK293, 500 μM compound, SEAP activity (OD 650 nm) relative to 28.5 μM resiquimod, read-out: Response at 500 μM Compound as a Percent of Resiquimod Response; for EC50: fit of SEAP dose response, ymax from 28.5 μM resiquimod
T1 construct: host or cells: HEK293
T1 sequence (Q9NYK1 27-1049): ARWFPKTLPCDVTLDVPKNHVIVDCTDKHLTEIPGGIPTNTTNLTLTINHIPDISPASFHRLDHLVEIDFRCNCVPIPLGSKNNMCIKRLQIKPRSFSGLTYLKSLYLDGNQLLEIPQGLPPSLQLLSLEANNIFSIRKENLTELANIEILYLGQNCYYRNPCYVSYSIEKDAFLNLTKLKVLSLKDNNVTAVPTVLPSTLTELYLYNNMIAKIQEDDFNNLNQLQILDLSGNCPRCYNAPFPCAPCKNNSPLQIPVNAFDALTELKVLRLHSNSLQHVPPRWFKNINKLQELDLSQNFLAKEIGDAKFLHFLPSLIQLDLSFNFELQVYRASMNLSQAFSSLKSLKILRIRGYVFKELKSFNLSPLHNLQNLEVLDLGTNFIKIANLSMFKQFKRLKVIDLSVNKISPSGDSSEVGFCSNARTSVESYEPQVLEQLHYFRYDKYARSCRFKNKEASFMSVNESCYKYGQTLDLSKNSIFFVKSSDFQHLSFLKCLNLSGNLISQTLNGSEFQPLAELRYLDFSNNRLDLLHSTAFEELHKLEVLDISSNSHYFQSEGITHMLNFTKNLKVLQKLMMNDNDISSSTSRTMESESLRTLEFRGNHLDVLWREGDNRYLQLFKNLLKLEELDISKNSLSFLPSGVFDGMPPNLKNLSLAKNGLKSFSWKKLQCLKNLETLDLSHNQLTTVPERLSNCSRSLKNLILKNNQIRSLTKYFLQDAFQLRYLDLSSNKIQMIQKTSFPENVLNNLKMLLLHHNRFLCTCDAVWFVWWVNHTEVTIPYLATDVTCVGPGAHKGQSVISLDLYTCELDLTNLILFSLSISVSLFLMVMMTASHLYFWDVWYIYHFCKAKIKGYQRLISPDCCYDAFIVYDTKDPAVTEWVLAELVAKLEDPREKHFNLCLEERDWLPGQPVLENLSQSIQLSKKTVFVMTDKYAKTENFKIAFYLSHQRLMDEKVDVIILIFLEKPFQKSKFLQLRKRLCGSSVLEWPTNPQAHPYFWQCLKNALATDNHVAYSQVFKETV
Text: The engagement of TLRs by cognate ligands triggers downstream signaling cascades, leading to the activation of NF-κB and other transcription factors which initiate various immunomodulatory effects. The human embryonic kidney cell line, HEK293, is essentially non-responsive to TLR agonists, but ectopic expression of TLRs in these cells allows cognate agonists to activate endogenous NF-κB. Accordingly, the HEK293-TLR-NF-κB inducible reporter system is used to assay TLR agonists.
HEK293 cell lines stably expressing human TLR7 or TLR8 together with an NF-κB-driven-secreted alkaline phosphatase (SEAP) reporter were invented at InvivoGen (San Diego, California, USA) and used to assess compounds of the present invention for TLR7 and TLR8 agonist activities. Cells were seeded at 2-5×10^4 cells/well in 96 well plates (200 μl/well) and treated with various concentrations of compound (10 μl) for 15-24 hours. SEAP activity was determined by measuring OD at 650 nm; the media used to culture the cell lines contains the reagents required for SEAP detection. The EC50 values in Table 1 are calculated from fitting the dose response of measured SEAP activity for each compound to the following equation: Y=ymax*c^nh/(EC50^nh+c^nh)+blank where Y is the experimentally measured OD650 at concentration c of test article, blank is the observed OD650 in the absence of TLR7 agonist, ymax is the difference between the measured OD650 in the presence of 28.5 μM resiquimod and the blank and values of EC50 and nh are determined by nonlinear least squares analysis. Resiquimod is a known TLR7 and TLR8 agonist.
Compound A is 5-amino-3-((2R,3R,5S)-3-hydroxy-5-((S)-1-hydroxypropyl)tetrahydrofuran-2-yl)thiazolo[4,5-d]pyrimidine-2,7(3H,6H)-dione)

[2] = system: hPBMCs (Human Peripheral Blood Mononuclear Cells); assay: Induction of interferon-α in hPBMCs in vitro; type: cell-based; settings: Homo sapiens, PBMC; for Emax: 24 h, peak IFNα2a as percentage of peak response of standard 2-Amino-7-(cyclopropylmethyl)-9-B-D-xylofuranosyl-7,9-dihydro-1H-purine-6,8-dione, averaged across donors, read-out: IFNrmax, Relative Maximal IFNα2a Production (%); for minimal effective concentration: minimal effective concentration for interferon-α production (generally at least 80 pg/ml above baseline), geometric mean across at least three donors, 24 hours, read-out: Weighted MEC
Experimental: Treatment of hPBMCs with a TLR7 agonist typically induces some production of interferon-α as well as lesser amounts of a variety of other cytokines and chemokines. A typical experiment uses hPBMCs isolated from a healthy donor and placed in replicate cell culture wells; typically 1.0-7.5×10^6 cells are placed in each well. A test compound is added and the cells are cultured for 24 hours at 37° C. in a humidified atmosphere containing 5% CO2 post-addition; untreated controls are included. Secreted interferon-α production is measured using an a multisubtype interferon-α ELISA kit like those from PBL Assay Sciences or specifically as IFNα2a as part of a panel of cytokines and chemokines using luminex methodologies.
The minimal effective concentration (MEC) is the minimum concentration in a dose response curve where a significant increase in interferon-α production (generally at least 80 pg/ml) is observed above baseline. MEC values for each compound are determined for at least three donors. The weighted MEC for each compound is the geometric mean of all individual MECs across all donors. Concentrations tested typically consist of a two-fold dilution series starting at 100 μM. In the calculation of weighted MEC, any individual MEC value greater the highest concentration tested is arbitrarily set to two times the highest concentration tested unless all MECs for a compound exceed this value. The maximal amount of IFNα2a for each donor is determined from dose dependence for each compound.
In order to normalize for variation in each hPBMC preparation, these values are first transformed by expressing as a percentage of peak response measured with a standard (2-Amino-7-(cyclopropylmethyl)-9-B-D-xylofuranosyl-7,9-dihydro-1H-purine-6,8-dione) and then averaging the results across all donors, this average referred to as IFNrmax.
IFNmax is the maximum amount of IFN observed at any concentration across the evaluated concentration range. MEC and IFNmax values for three select compound are shown for three donors (Table 3). The range of tested concentrations were 0.625-5 μM for Imiquimod, 3.125-100 μM for both Compound A and Compound 1, 12.5-100 μM for Compound 2.

| Emax at 500 µM [1] [%] | EC50 [1] [µM] | Structure (SMILES) | Emax [2] [%] | minimal effective concentration [2] [µM] |
| --- | --- | --- | --- | --- |
| 52 | 327 | C#CCn1c(=O)n([C@@H]2O[C@H]([C@@H](O)CF)C[C@H]2O)c2nc(N)[nH]c(=O)c21 [Compound 24, 2-Amino-9-((2R,3R,5S)-5-((R)-2-fluoro-1-hydroxyethyl)-3-hydroxytetrahydrofuran-2-yl)-7-(prop-2-yn-1-yl)-7,9-dihydro-1H-purine-6,8-dione] | 205 | 12.5 |
| 74 | 324 | CCCn1c(=O)n([C@@H]2O[C@H]([C@@H](O)C(F)(F)F)C[C@H]2O)c2nc(N)[nH]c(=O)c21 [Compound 25, 2-Amino-9-((2R,3R,5S)-3-hydroxy-5-((R)-2,2,2-trifluoro-1-hydroxyethyl)tetrahydrofuran-2-yl)-7-propyl-7,9-dihydro-1H-purine-6,8-dione] | 80 | 19.8 |
| 59 | 269 | CCCn1c(=O)n([C@@H]2O[C@H]([C@@H](O)CC)[C@H](F)[C@H]2O)c2nc(N)[nH]c(=O)c21 [Compound 26, 2-Amino-9-((2R,3S,4R,5R)-4-fluoro-3-hydroxy-5-((S)-1-hydroxypropyl)tetrahydrofuran-2-yl)-7-propyl-7,9-dihydro-1H-purine-6,8-dione] | 304 | ≤ 1.6 |
| 61 | 339 | CC[C@H](O)[C@H]1O[C@@H](n2c(=O)n(CCC(F)(F)F)c3c(=O)[nH]c(N)nc32)[C@H](O)[C@H]1F [Compound 27, 2-Amino-9-((2R,3S,4R,5R)-4-fluoro-3-hydroxy-5-((S)-1-hydroxypropyl)tetrahydrofuran-2-yl)-7-(3,3,3-trifluoropropyl)-7,9-dihydro-1H-purine-6,8-dione] | 209 | ≤ 1.6 |
| 47 | 519 | Nc1nc2c(c(=O)[nH]1)n(CCC(F)(F)F)c(=O)n2[C@@H]1O[C@H]([C@@H](O)C(F)(F)F)C[C@H]1O [Compound 28, 2-Amino-9-((2R,3R,5S)-3-hydroxy-5-((R)-2,2,2-trifluoro-1-hydroxyethyl)tetrahydrofuran-2-yl)-7-(3,3,3-trifluoropropyl)-7,9-dihydro-1H-purine-6,8-dione] | 105 | 9.9 |
| 79 | 201 | Nc1nc2c(c(=O)[nH]1)n(CC1CC1)c(=O)n2[C@@H]1O[C@H]([C@@H](O)C(F)(F)F)C[C@H]1O [Compound 29, 2-Amino-7-(cyclopropylmethyl)-9-((2R,3R,5S)-3-hydroxy-5-((R)-2,2,2-trifluoro-1-hydroxyethyl)tetrahydrofuran-2-yl)-7,9-dihydro-1H-purine-6,8-dione] | 83 | 6.3 |
| 87 | 94 | CCCCn1c(=O)n([C@@H]2O[C@H]([C@@H](O)CC)[C@H](F)[C@H]2O)c2nc(N)[nH]c(=O)c21 [Compound 30, 2-Amino-7-butyl-9-((2R,3S,4R,5R)-4-fluoro-3-hydroxy-5-((S)-1-hydroxypropyl)tetrahydrofuran-2-yl)-7,9-dihydro-1H-purine-6,8-dione] | 347 | 1.6 |
| 78 | 210 | CCCCn1c(=O)n([C@@H]2O[C@H]([C@@H](O)C(F)(F)F)C[C@H]2O)c2nc(N)[nH]c(=O)c21 [Compound 31, 2-Amino-7-butyl-9-((2R,3R,5S)-3-hydroxy-5-((R)-2,2,2-trifluoro-1-hydroxyethyl)tetrahydrofuran-2-yl)-7,9-dihydro-1H-purine-6,8-dione] | 71 | 6.3 |
| 68 | 339 | CC[C@H](O)[C@@H]1C[C@@H](O)[C@H](n2c(=O)n(CCO)c3c(=O)[nH]c(N)nc32)O1 [Compound 32, 2-Amino-9-((2R,3R,5S)-3-hydroxy-5-((S)-1-hydroxypropyl)tetrahydrofuran-2-yl)-7-(2-hydroxyethyl)-7,9-dihydro-1H-purine-6,8-dione] | 223 | 7.9 |
| 91 | 114 | C#CC[C@H](O)[C@@H]1C[C@@H](O)[C@H](n2c(=O)n(CC#C)c3c(=O)[nH]c(N)nc32)O1 [Compound 35, 2-Amino-9-((2R,3R,5S)-3-hydroxy-5-((S)-1-hydroxybut-3-yn-1-yl)tetrahydrofuran-2-yl)-7-(prop-2-yn-1-yl)-7,9-dihydro-1H-purine-6,8-dione] | 207 | 3.1 |
| < 5 |  | C#CCn1c(=O)n([C@@H]2O[C@H](C(=O)OC)C[C@H]2O)c2nc(N)[nH]c(=O)c21 [Compound 39, Methyl (2S,4R,5R)-5-(2-amino-6,8-dioxo-7-(prop-2-yn-1-yl)-1,6,7,8-tetrahydro-9H-purin-9-yl)-4-hydroxytetrahydrofuran-2-carboxylate] | ≤ 10 | > 50 |
| < 5 |  | C#CCn1c(=O)n([C@@H]2O[C@H](C(=O)O)C[C@H]2O)c2nc(N)[nH]c(=O)c21 [Compound 40, (2S,4R,5R)-5-(2-Amino-6,8-dioxo-7-(prop-2-yn-1-yl)-1,6,7,8-tetrahydro-9H-purin-9-yl)-4-hydroxytetrahydrofuran-2-carboxylic acid] | ≤ 10 | > 50 |
